How the values were obtained:
THZ-P1-2 = compound: CN(C)C/C=C/C(=O)NC1=CC=C(C=C1)C(=O)NC2=CC=CC(=C2)NC3=NC=NC(=C3)C4=CNC5=CC=CC=C54 [THZ-P1-2]
Ceritinib/LDK378 = compound: Cc1cc(Nc2ncc(Cl)c(Nc3ccccc3S(=O)(=O)C(C)C)n2)c(OC(C)C)cc1C1CCNCC1 [Ceritinib/LDK378]
Luminespib/NVP-AUY922 = compound: CCNC(=O)c1noc(-c2cc(C(C)C)c(O)cc2O)c1-c1ccc(CN2CCOCC2)cc1 [Luminespib/NVP-AUY922]
Saracatinib/AZD0530 = compound: CN1CCN(CCOc2cc(OC3CCOCC3)c3c(Nc4c(Cl)ccc5c4OCO5)ncnc3c2)CC1 [Saracatinib/AZD0530]
BSJ-01-175 = compound: CN(C)C/C=C/C(=O)Nc1ccc(O[C@@H]2CCC[C@@H](Nc3ncc(Cl)c(-c4c[nH]c5ccccc45)n3)C2)cc1 [BSJ-01-175]
[1] = compound: CCCCOc1c(C(=O)c2c(F)cc(C)cc2F)c[nH]c2nncc1-2
BSJ-03-123 = compound: CC(=O)c1c(C)c2cnc(Nc3ccc(N4CCN(CCOCCOCCOCCNC(=O)COc5cccc6c5C(=O)N(C5CCC(=O)NC5=O)C6=O)CC4)cn3)nc2n(C2CCCC2)c1=O [BSJ-03-123]; test: increase in dead-cell fraction, 72 h; higher = more death;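 further: breast cancer cell lines in 384-well plates, stained with Hoechst plus LIVE/DEAD far red dye and imaged, cells above an LDR intensity threshold counted dead, Hoechst-negative corpses included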
Neratinib/HKI272 = compound: CCOc1cc2ncc(C#N)c(Nc3ccc(OCc4ccccn4)c(Cl)c3)c2cc1NC(=O)/C=C/CN(C)C [Neratinib/HKI272]; test: as above
[2] = compound: CCc1cnn2c(NCc3ccc[n+]([O-])c3)cc(N3CCCC[C@H]3CCO)nc12; test: as above
[3] = compound: CCN1CCN(Cc2ccc(Nc3ncc(F)c(-c4cc(F)c5nc(C)n(C(C)C)c5c4)n3)nc2)CC1; test: as above
THZ1 = compound: CN(C)C/C=C/C(=O)Nc1ccc(C(=O)Nc2cccc(Nc3ncc(Cl)c(-c4c[nH]c5ccccc45)n3)c2)cc1 [THZ1]; test: as above
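Wherever GR50, 72 h is given: breast cancer and non-malignant breast epithelial cell lines, Deep Dye Drop or Dye Drop imaging, nine half-log doses, GR normalized to time-zero plates and DMSO-only controls.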

## PDXHCI002
THZ-P1-2
  GR50, 72 h: > 10 µM
Ceritinib/LDK378
  GR50, 72 h: 0.338 µM
Luminespib/NVP-AUY922
  GR50, 72 h: 0.00439 µM
Saracatinib/AZD0530
  GR50, 72 h: 0.0805 µM
BSJ-01-175
  GR50, 72 h: 0.00607 µM
[1]
  GR50, 72 h: 3.29 µM
BSJ-03-123; 0.001 µM
  increase in dead-cell fraction: -0.0304
BSJ-03-123; 0.003162 µM
  increase in dead-cell fraction: -0.0395
BSJ-03-123; 0.01 µM
  increase in dead-cell fraction: -0.0247
BSJ-03-123; 0.03162 µM
  increase in dead-cell fraction: 0.0116
BSJ-03-123; 0.1 µM
  increase in dead-cell fraction: 0.0131
BSJ-03-123; 0.3162 µM
  increase in dead-cell fraction: 0.02
BSJ-03-123; 1 µM
  increase in dead-cell fraction: 0.121
BSJ-03-123; 3.162 µM
  increase in dead-cell fraction: 0.127
BSJ-03-123; 10 µM
  increase in dead-cell fraction: 0.299
Neratinib/HKI272; 0.0003162 µM
  increase in dead-cell fraction: 0.0061
Neratinib/HKI272; 0.001 µM
  increase in dead-cell fraction: -0.001
Neratinib/HKI272; 0.003162 µM
  increase in dead-cell fraction: -0.0049
Neratinib/HKI272; 0.01 µM
  increase in dead-cell fraction: -0.0162
Neratinib/HKI272; 0.03162 µM
  increase in dead-cell fraction: 0.0001
Neratinib/HKI272; 0.1 µM
  increase in dead-cell fraction: -0.0122
Neratinib/HKI272; 0.3162 µM
  increase in dead-cell fraction: 0.0151
Neratinib/HKI272; 1 µM
  increase in dead-cell fraction: 0.0548
Neratinib/HKI272; 3.162 µM
  increase in dead-cell fraction: 0.31
[2]; 0.0001 µM
  increase in dead-cell fraction: -0.0076
[2]; 0.0003162 µM
  increase in dead-cell fraction: -0.0064
[2]; 0.001 µM
  increase in dead-cell fraction: -0.0055
[2]; 0.003162 µM
  increase in dead-cell fraction: -0.0087
[2]; 0.01 µM
  increase in dead-cell fraction: -0.0047
[2]; 0.03162 µM
  increase in dead-cell fraction: 0.451
[2]; 0.1 µM
  increase in dead-cell fraction: 0.504
[2]; 0.3162 µM
  increase in dead-cell fraction: 0.458
[2]; 1 µM
  increase in dead-cell fraction: 0.44
[3]; 0.001 µM
  increase in dead-cell fraction: -0.0112
[3]; 0.003162 µM
  increase in dead-cell fraction: -0.0293
[3]; 0.01 µM
  increase in dead-cell fraction: -0.0317
[3]; 0.03162 µM
  increase in dead-cell fraction: -0.0292
[3]; 0.1 µM
  increase in dead-cell fraction: -0.0036
[3]; 0.3162 µM
  increase in dead-cell fraction: 0.0233
[3]; 1 µM
  increase in dead-cell fraction: 0.161
[3]; 3.162 µM
  increase in dead-cell fraction: 0.61
[3]; 10 µM
  increase in dead-cell fraction: 0.778
THZ1; 0.0001 µM
  increase in dead-cell fraction: -0.0106
THZ1; 0.0003162 µM
  increase in dead-cell fraction: -0.015
THZ1; 0.001 µM
  increase in dead-cell fraction: -0.01
THZ1; 0.003162 µM
  increase in dead-cell fraction: -0.0152
THZ1; 0.01 µM
  increase in dead-cell fraction: 0.0629
THZ1; 0.03162 µM
  increase in dead-cell fraction: 0.221

From the supplement of paper PMC9663587
